Source: ChEMBL document CHEMBL1201862, “PubChem BioAssay data set” (2004)
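Test compounds were applied to cells in 96-well plates for 48 hours at 5 doses. GI50 marks 50% less growth.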 Calls of active or inactive are those of the source. No stated cut-off is given here; in the data, active = GI50 up to about 1.1 µM and inactive = higher.

Assays:
Assay in all cases: growth of human tumour cells (NCI), 48 h
ACHN = system: ACHN
SK-MEL-5 = system: SK-MEL-5
OVCAR-4 = system: OVCAR-4
HT-29 = system: HT-29
DU-145 = system: DU-145
HL-60 = system: HL-60
SW-620 = system: SW-620
M14 = system: M14
NCI-H460 = system: NCI-H460
SNB-19 = system: SNB-19
NCI-H522 = system: NCI-H522
COLO 205 = system: COLO 205
HCT-116 = system: HCT-116
KM12 = system: KM12
HCT-15 = system: HCT-15
OVCAR-3 = system: OVCAR-3
U-251 = system: U-251
MOLT-4 = system: MOLT-4
EKVX = system: EKVX
SF-539 = system: SF-539
UO-31 = system: UO-31
SK-OV-3 = system: SK-OV-3
PC-3 = system: PC-3
786-0 = system: 786-0
CCRF-CEM = system: CCRF-CEM
HOP-62 = system: HOP-62
MDA-N = system: MDA-N
IGROV-1 = system: IGROV-1
SN12C = system: SN12C
CAKI-1 = system: CAKI-1
BT-549 = system: BT-549
HOP-92 = system: HOP-92
SNB-75 = system: SNB-75
MDA-MB-231 = system: MDA-MB-231
SR = system: SR
SF-268 = system: SF-268
MCF7 = system: MCF7
RPMI-8226 = system: RPMI-8226
UACC-257 = system: UACC-257
UACC-62 = system: UACC-62
NCI-H23 = system: NCI-H23
A549 = system: A549
A498 = system: A498
RXF 393 = system: RXF 393
HCC 2998 = system: HCC 2998
SF-295 = system: SF-295
MDA-MB-435 = system: MDA-MB-435
NCI/ADR-RES = system: NCI/ADR-RES
SK-MEL-2 = system: SK-MEL-2
SK-MEL-28 = system: SK-MEL-28
NCI-H226 = system: NCI-H226
LOX IMVI = system: LOX IMVI
Hs-578T = system: Hs-578T
Malme-3M = system: Malme-3M
OVCAR-8 = system: OVCAR-8
OVCAR-5 = system: OVCAR-5
K562 = system: K562
TK-10 = system: TK-10
T47D = system: T47D

C/C(Cl)=N/OC(=O)Nc1ccc(F)c([N+](=O)[O-])c1
GI50 (ACHN): 3.02 µM (inactive)
GI50 (SK-MEL-5): 14 µM (inactive)
GI50 (OVCAR-4): 7.36 µM (inactive)
GI50 (HT-29): 19.6 µM (inactive)
GI50 (DU-145): 17.3 µM (inactive)
GI50 (HL-60): 1.94 µM (inactive)
GI50 (SW-620): 3.71 µM (inactive)
GI50 (M14): 19.2 µM (inactive)
GI50 (NCI-H460): 4.75 µM (inactive)
GI50 (SNB-19): 20.1 µM (inactive)
GI50 (NCI-H522): 1.81 µM (inactive)
GI50 (COLO 205): 2.34 µM (inactive)
GI50 (HCT-116): 3.89 µM (inactive)
GI50 (KM12): 17.1 µM (inactive)
GI50 (HCT-15): 5.94 µM
GI50 (OVCAR-3): 19.2 µM (inactive)
GI50 (U-251): 20 µM (inactive)
GI50 (MOLT-4): 1.78 µM (inactive)
GI50 (EKVX): 16.3 µM (inactive)
GI50 (SF-539): 33.3 µM (inactive)
GI50 (UO-31): 8.05 µM (inactive)
GI50 (SK-OV-3): 20.9 µM (inactive)
GI50 (PC-3): 17.8 µM (inactive)
GI50 (786-0): 4 µM (inactive)
GI50 (CCRF-CEM): 2.13 µM (inactive)
GI50 (HOP-62): 18.2 µM (inactive)
GI50 (MDA-N): 16 µM (inactive)
GI50 (IGROV-1): 6.97 µM (inactive)
GI50 (SN12C): 7.57 µM (inactive)
GI50 (CAKI-1): 1.79 µM (inactive)
GI50 (BT-549): 14.1 µM (inactive)
GI50 (HOP-92): 5.4 µM (inactive)
GI50 (SNB-75): 1.71 µM (inactive)
GI50 (MDA-MB-231): 17.5 µM (inactive)
GI50 (SR): 8.57 µM (inactive)
GI50 (SF-268): 15.4 µM (inactive)
GI50 (MCF7): 15.2 µM (inactive)
GI50 (RPMI-8226): 2.65 µM (inactive)
GI50 (UACC-257): 20.7 µM (inactive)
GI50 (UACC-62): 21.3 µM (inactive)
GI50 (NCI-H23): 20 µM (inactive)
GI50 (A549): 26.2 µM (inactive)
GI50 (A498): 19.5 µM (inactive)
GI50 (RXF 393): 12.1 µM (inactive)
GI50 (HCC 2998): 37.3 µM (inactive)
GI50 (SF-295): 31.1 µM (inactive)
GI50 (MDA-MB-435): 14.5 µM (inactive)
GI50 (NCI/ADR-RES): 30.3 µM (inactive)
GI50 (SK-MEL-2): 17.6 µM (inactive)
GI50 (SK-MEL-28): 17.6 µM (inactive)
GI50 (NCI-H226): 26.4 µM (inactive)
GI50 (LOX IMVI): 6.68 µM (inactive)
GI50 (Hs-578T): 0.457 µM (active)
GI50 (Malme-3M): 2.65 µM (inactive)
GI50 (OVCAR-8): 8.91 µM (inactive)
GI50 (OVCAR-5): 24.2 µM (inactive)
GI50 (K562): 2.57 µM (inactive)
GI50 (TK-10): 6.1 µM (inactive)

COc1c(CC=C(C)C)c(O)c(C(CC(C)C)c2c(O)c(C(C)=O)c(O)c3c2OC(C(C)(C)O)C3)c(O)c1C(C)=O (stereo unspecified) [ACROFOLIONE A]
GI50 (ACHN): 4.31 µM (inactive)
GI50 (SK-MEL-5): 3.41 µM (inactive)
GI50 (OVCAR-4): 5.68 µM (inactive)
GI50 (HT-29): 4.71 µM (inactive)
GI50 (DU-145): 4.71 µM (inactive)
GI50 (HL-60): 1.97 µM (inactive)
GI50 (SW-620): 6.25 µM (inactive)
GI50 (M14): 5.56 µM (inactive)
GI50 (NCI-H460): 4.13 µM (inactive)
GI50 (SNB-19): 7.33 µM (inactive)
GI50 (NCI-H522): 3.39 µM (inactive)
GI50 (COLO 205): 4.46 µM (inactive)
GI50 (HCT-116): 3.68 µM (inactive)
GI50 (HCT-15): 3.86 µM
GI50 (OVCAR-3): 5.42 µM (inactive)
GI50 (MOLT-4): 3.4 µM (inactive)
GI50 (EKVX): 4.51 µM (inactive)
GI50 (SF-539): 4.93 µM (inactive)
GI50 (UO-31): 4.16 µM (inactive)
GI50 (786-0): 4.89 µM (inactive)
GI50 (CCRF-CEM): 5.36 µM (inactive)
GI50 (MDA-N): 4.29 µM (inactive)
GI50 (IGROV-1): 3.65 µM (inactive)
GI50 (SN12C): 3.84 µM (inactive)
GI50 (CAKI-1): 3.59 µM (inactive)
GI50 (BT-549): 3.27 µM (inactive)
GI50 (HOP-92): 1.85 µM (inactive)
GI50 (SR): 2.82 µM (inactive)
GI50 (SF-268): 5.33 µM (inactive)
GI50 (MCF7): 4.26 µM (inactive)
GI50 (UACC-257): 3.2 µM (inactive)
GI50 (UACC-62): 5.26 µM (inactive)
GI50 (NCI-H23): 3.75 µM (inactive)
GI50 (A549): 7.96 µM (inactive)
GI50 (A498): 3.83 µM (inactive)
GI50 (RXF 393): 2.88 µM (inactive)
GI50 (HCC 2998): 4.46 µM (inactive)
GI50 (MDA-MB-435): 4.86 µM (inactive)
GI50 (NCI/ADR-RES): 3.82 µM (inactive)
GI50 (SK-MEL-28): 9.18 µM (inactive)
GI50 (NCI-H226): 5.69 µM (inactive)
GI50 (LOX IMVI): 4.38 µM (inactive)
GI50 (Hs-578T): 7.74 µM (inactive)
GI50 (Malme-3M): 3.81 µM (inactive)
GI50 (OVCAR-8): 4.12 µM (inactive)
GI50 (T47D): 3.21 µM (inactive)
GI50 (OVCAR-5): 5.38 µM (inactive)
GI50 (K562): 2.13 µM (inactive)
